What was measured:
[1] = tested on: Human bone marrow derived mesenchymal stem cells; assay: TNFSF10 (TRAIL) mRNA induction (quantitative real-time PCR) in mesenchymal stem cells, type 1 priming; format: cell-based; settings: normalized to 18S rRNA
Method: Referring to FIG. 4A and FIG. 4B, Type 1 mesenchymal stem cell priming by TLR4 is further enhanced with leukotriene B4 (LTB4), serotonin (5-HT), melatonin (MEL). Human bone marrow derived mesenchymal stem cells were induced into type 1 mesenchymal stem cells using lipopolysaccharide (LPS) and 0.5 ng/ml of human recombinant erythropoietin. Total RNA was isolated, purified, and reverse transcribed to cDNA. Quantitative real-time PCR was carried out using SYBR Green Master Mix. Data were analyzed using the quantitative comparative CT method, normalizing target gene expression to the 18S rRNA housekeeping gene, and shown as fold increase over the untreated control. […] Error bars represent +/− the standard error of the mean (SEM). […] TLR4 (approx. 425,854-fold FIG. 4A; approx. 7,567-fold FIG. 4B), LTB4 (approx. 49-fold FIG. 4A; approx. 49-fold FIG. 4B), 5-HT (approx. 333-fold FIG. 4B), or MEL (approx. 489-fold FIG. 4B).

[2] = tested on: Human bone marrow derived mesenchymal stem cells; assay: CXCL9 mRNA induction (quantitative real-time PCR) in mesenchymal stem cells, type 2 priming; format: cell-based; settings: normalized to 18S rRNA
Method: Referring to FIG. 3A and FIG. 3B, Type 2 mesenchymal stem cell priming by TLR3 is further enhanced with Acetylcholine (ACH), Glutamate (GLU), and Lipoxin A4 (LAX4). Human bone marrow derived mesenchymal stem cells were induced into type 2 mesenchymal cells using poly(I:C) and 0.5 ng/ml of human recombinant erythropoictin. Total RNA was isolated, purified, and reverse transcribed to cDNA. Quantitative real-time PCR was carried out using SYBR Green Master Mix. Data were analyzed using the quantitative comparative CT method, normalizing target gene expression to the 18S rRNA housekeeping gene, and shown as fold increase over the untreated control. […] Error bars represent +/− the standard error of the mean (SEM).

Compound | TNFSF10 (TRAIL) gene expression, fold increase over the untreated control ([1]; FIG. 4B experiment) | CXCL9 gene expression, fold increase over the untreated control ([2]; FIG. 3A experiment) | CXCL9 gene expression, fold increase over the untreated control ([2]; FIG. 3B experiment) | TNFSF10 (TRAIL) gene expression, fold increase over the untreated control ([1]; FIG. 4A experiment)
NCCc1c[nH]c2ccc(O)cc12 [5-HT, serotonin] | approx. 333 fold | – | – | –
CC(=O)OCC[N+](C)(C)C [ACH, Acetylcholine] | – | approx. 3.7 fold | approx. 20 fold | –
N[C@@H](CCC(=O)O)C(=O)O [GLU, Glutamate] | – | approx. 1.4 fold | approx. 16 fold | –
CCCCC[C@H](O)/C=C/C=C\C=C\C=C\[C@@H](O)[C@@H](O)CCCC(=O)O [LAX4, Lipoxin A4] | – | approx. −2 fold | approx. 13 fold | –
CCCCC/C=C\C[C@@H](O)/C=C/C=C/C=C\[C@@H](O)CCCC(=O)O [LTB4, leukotriene B4] | approx. 49 fold | – | – | approx. 49 fold
COc1ccc2[nH]cc(CCNC(C)=O)c2c1 [MEL, melatonin] | approx. 489 fold | – | – | –
poly(I:C) [TLR3] | – | approx. 8.8 fold | approx. 22 fold | –
